Assay results taken from patent US8288549B2, “Glycine B antagonist” (Merz Pharma GmbH & Co. KGaA, priority 2008, dated 2012).

What was measured:
[1] = molecular target: T1, glycine binding pocket of the NMDA receptor (Rattus norvegicus, UniProt P35439); experiment: [3H]-MDL-105,519 displacement studies on rat cortical membranes; conditions: displacement of 2 nM [3H]-MDL-105,519, rat cortical membranes, 4° C., 1 h; read-out: NMDA-MDL 105519-r-CTX - IC50
T1 construct: The cortex is dissected out and processed as described by Parsons, et al; from tissue; host or cells: rat cerebral cortex membranes (male Sprague-Dawley)
Procedure: [^3]MDL-105,519 Displacement Studies
For the evaluation of the binding affinity of the test compounds on the glycine binding pocket of the NMDA receptor, [^3H]-MDL-105,519 (GE Healthcare, Freiburg, Germany) displacement studies are performed using a 96-well plate robotic platform. MDL-105,519 (Baron et al., J Pharmacol Exp Ther 1996, 279(1), 62-68; Baron et al., European Journal of Pharmacology, 1997, 323(2-3), 181-192; Hoffner & Wanner, Neuroscience Letters, 1997, 226(2), 79-82) is a selective, high affinity antagonist at the NMDA receptor glycine site.
Tissue preparation is performed according to Foster & Wong (Br J Pharmacol, 1987, 91, 403-409) with some modifications. Anaesthetised male Sprague-Dawley rats (200-250 g, Janvier, Le Genest-Isle, France) are decapitated and their brains removed rapidly. The cortex is dissected out and processed as described by Parsons, et al. (J Pharmacol Exp Ther, 1997, 283(3), 1264-1275). For isolation of the cell membranes, the cortices are homogenized in 20 volumes of ice-cold 0.32 M sucrose (Sigma-Aldrich, Taufkirchen, Germany) using a glass-Teflon homogenizer. The homogenate is centrifuged at 1000×g for 10 minutes, the pellet is discarded and the supernatant centrifuged at 20,000×g for 20 minutes. The resulting pellet is re-suspended in 20 volumes of distilled water and centrifuged for 20 minutes at 8000×g. The supernatant and the buffy coat are then centrifuged three times (48,000×g for 20 minutes) in the presence of 50 mM Tris-HCl, pH 8.0 (assay buffer). All centrifugation steps are carried out at 4° C. After resuspension in 5 volumes of 50 mM Tris-HCl, pH 7.5, the membrane suspension is frozen rapidly at −80° C. On the day of assay, the membranes are thawed and washed four times by resuspension in 50 mM Tris-HCl, pH 7.5, and centrifugation at 48,000×g for 20 minutes. The final pellet is suspended in assay buffer. The amount of protein in the final membrane preparation is determined according to the method of Lowry, et al. (J. Biological Chemistry, 1951, 193, 256-275) with some modifications (Hartree, Analytical Biochemistry, 1972, 48, 422-427). The final protein concentration used for our studies is 400 μg/ml.
A robotic system designed for binding assays (Tecan Deutschland GmbH, Crailsheim, Germany) is loaded with the membrane solution, solutions for bound control (buffer/DMSO 20%), unlabeled glycine (1 mM) for evaluation of non-specific binding, all compounds to be tested (at 20-fold concentrations), radioligand and respective 96-well plates.
Before performing displacement studies, saturation experiments are performed to determine the equilibrium dissociation constant (Kd) of [^3H]-MDL-105,519, which is a parameter for the affinity of the radioligand to the binding site. The protein/receptor concentration is held constant whereas the amount of specific bound radioligand is determined using increasing concentrations of ligand.
On the basis of the saturation experiments, a final [^3H]-MDL-105,519 concentration of 2 nM is selected. Firstly, the assay plates are loaded with membrane solution and are shaken at 4° C. The mother plates are then prepared by pipetting the compounds (n=4) into assay buffer/20% DMSO to obtain the desired final concentrations. After transferring radioligand into the assay plates, the compounds are added (including the bound and the non-specific binding control). The final DMSO concentration is 1%. The assay plates are incubated and shaken at 4° C. for 1 h, before the mixture is exhausted as rapidly as possible via a vacuum manifold using the Multiscreen HTS glass fibre (type B) filter plates (Millipore, Schwalbach, Germany) under a constant vacuum of 450 mbar. The membranes are washed four times with cold assay buffer (100 μL). […]

[2] = molecular target: T2, NMDA receptor glycine B site (Rattus norvegicus, UniProt P35439); experiment: Whole cell patch-clamp recordings in cultured rat hippocampal neurons (NMDA/D-Serine evoked currents); format: cell-based; conditions: NMDA (200 μM) and D-Serine (1 μM), holding potential −70 mV, read-out: NMDA-PC-r-HIC-NAM - IC50
T2 construct: Hippocampi are then isolated from the brains of at least 8 embryos after decapitation; endogenous in cells; host or cells: primary cultured hippocampal neurons from E20 Sprague-Dawley rat embryos, 11-15 DIV
Procedure: Antagonistic potencies of the test compounds are functionally evaluated using electrophysiological whole cell patch-clamp recordings and/or fluorometric intracellular Ca^2+-imaging (FLIPR) screens.
Cell preparation is performed as described by Parsons, et al. (Neuropharmacology, 1998, 37(6), 719-727). The female Sprague-Dawley rat is anaesthetised by placing in a saturated CO2-euthanasia chamber under further quiet CO2-influx. Under these conditions the rat loses consciousness after a few seconds and is then sacrificed by cervical dislocation. After opening the abdominal cavity, embryos (E20) are removed and stored in ice cold Ca^2+- and Mg^2+-free Hank's Buffered Salt Solution (pH 7.3), containing 4 g/l glucose (HBSS-CMF). Hippocampi are then isolated from the brains of at least 8 embryos after decapitation, transferred into ice cold HBSS-CMF and washed 3 to 4 times.
Hippocampi are pre-incubated for 8 min with a 0.66% trypsin (Sigma-Aldrich) and 0.1% (20 U/ml) DNAase solution (Sigma-Aldrich) in Ca^2+-free Phosphate Buffered Saline (PBS-CF) and washed 3 times with HBSS-CMF. Cells are then mechanically dissociated by trituration in a PBS-CF solution containing 0.05% (10 U/ml) DNAase and 0.3% of the trypsin inhibitor ovomucoid (all from Sigma-Aldrich). The cells are then centrifuged at 180×g for 10 minutes, and the cell pellet re-suspended in basal Minimum essential medium (MEM, Invitrogen, Karlsruhe, Germany), again carefully triturated to ensure maximal dissociation and finally plated in the flexiPERM inserts (Thermo Fisher Scientific, Langenselbold, Germany) at a density of 15×10^3 cells/cm^2 (0.5 ml/insert) onto poly-DL-ornithine (Sigma) and mouse laminin (Invitrogen) pre-coated plastic petri dishes. After 1 hour the cells become attached to the bottom of the dish and the inserts may be removed. The cells are then nourished with 2 ml MEM supplemented with 5% foetal calf serum (FCS) and 5% horse serum and incubated at 37° C. with 95% air and 5% CO2 at 95% humidity. After 4 days in vitro (DIV) further glial mitosis is inhibited by adding 10 μl of AraC (5 μM endconcentration). The medium is completely exchanged after an additional 2 DIV and again, but only partly (50%), after 8 DIV. The cells are used for electrophysiological recordings after 11-15 DIV.
Cells are visualised using an inverted microscope and selected for patching based upon their position and morphology. Voltage clamp recordings are made in the whole cell configuration of the patch clamp technique at a holding potential of −70 mV with the aid of an EPC-10 amplifier in combination with pipette manipulator. Patch clamp pipettes are pulled from borosilicate glass using a horizontal puller (P-97 Puller, Sutter Instruments, USA) and, when filled with intracellular solution, have resistances of 1-4 MΩ.
Solutions are delivered via a home-made gravity driven very fast perfusion system (<10 ms) including valves to switch flow on and off in combination with a stepper motor-driven double-barreled theta glass application pipette in order to expose cells to either agonist-free or agonist-containing solutions in presence or absence of antagonist.
The intracellular solution used consists of: 120 mM CsCl, 10 mM EGTA, 1 mM MgCl2, 200 μM CaCl2, 10 mM glucose and 22 mM tetraethyl ammonium chloride (TEA-CL). The corresponding extracellular bath solution contains: 140 mM NaCl, 3 mM KCl, 10 mM glucose, 10 mM HEPES, 1.5 mM CaCl2 and 4.5 mM sucrose (all from Sigma-Aldrich) pH 7.3, and is supplemented with 0.3 μM tetrodotoxin (TTX, Tocris, Bristol, U.K.) to block voltage-activated sodium channels and 0.25 μM bicuculline (Sigma-Aldrich) to block GABAA receptors. […]

Structure (SMILES)	melting point	IC50 [1] [nM]	IC50 [2] [nM]
O=C(O)c1cc2cc(Br)cc(Br)c2nc1NC(Cc1ccccc1)C(=O)O (centres unmarked) [Example 56, 6,8-Dibromo-2-(1-carboxy-2-phenyl-ethylamino)-quinoline-3-carboxylic acid]	115 to 117 °C	1730	1240
Cc1cc(Cl)cc2cc(C(=O)O)c(NC(Cc3ccccc3)C(=O)O)nc12 (centres unmarked) [Example 95, 2-(1-Carboxy-2-phenyl-ethylamino)-6-chloro-8-methylquinoline-3-carboxylic acid]	> 145 °C (dec.)	2290	
Cc1cc(Cl)cc2cc(C(=O)O)c(NC(Cc3c[nH]c4ccccc34)C(=O)O)nc12 (centres unmarked) [Example 97, 2-[1-Carboxy-2-(1H-indol-3-yl)-ethylamino]-6-chloro-8-methylquinoline-3-carboxylic acid]	> 160 °C (dec.)	2490	
O=C(O)c1cc2cc(Cl)ccc2nc1NC(Cc1ccc(Nc2ccnc3ccccc23)cc1)C(=O)O (centres unmarked) [Example 104, 2-{1-Carboxy-2-[4-(quinolin-4-ylamino)-phenyl]-ethylamino}-6-chloro-quinoline-3-carboxylic acid]	> 200 °C (dec.)	700	
O=C(O)c1cc2cc(Cl)cc(Cl)c2nc1N[C@@H](Cc1c[nH]c2ccccc12)C(=O)O [Example 155, 2-[(S)-1-Carboxy-2-(1H-indol-3-yl)-ethylamino]-6,8-dichloro-quinoline-3-carboxylic acid]		1030	

Next, values leading:

melting point	IC50 [1] [nM]	IC50 [2] [nM]	Structure (SMILES)
153 to 159 °C	410		O=C(O)c1cc2cc(Cl)ccc2nc1N[C@@H](Cc1ccccc1)C(=O)O [Example 1, 2-((S)-1-Carboxy-2-phenyl-ethylamino)-6-chloro-quinoline-3-carboxylic acid]
	2120	930	O=C(O)c1cc2cc(Cl)ccc2nc1NC(Cc1c[nH]c2ccc(F)cc12)C(=O)O (centres unmarked) [Example 25, 2-[1-Carboxy-2-(5-fluoro-1H-indol-3-yl)-ethylamino]-6-chloro-quinoline-3-carboxylic acid]
	1870	1030	O=C(O)c1cc2cc(Cl)ccc2nc1N[C@@H](Cc1ccc(O)c([N+](=O)[O-])c1)C(=O)O [Example 41, 2-[(S)-1-Carboxy-2-(4-hydroxy-3-nitro-phenyl)-ethylamino]-6-chloro-quinoline-3-carboxylic acid]
155 to 158 °C (dec.)	4390		O=C(O)c1cc2cc(Cl)ccc2nc1N[C@@H](Cc1ccncc1)C(=O)O [Example 55, 2-((S)-1-Carboxy-2-pyridin-4-yl-ethylamino)-6-chloro-quinoline-3-carboxylic acid]
> 250 °C (dec.)	1910		O=C(O)c1cc2cc(Cl)ccc2nc1N[C@@H](Cc1cccs1)C(=O)O [Example 156, 2-((S)-1-Carboxy-2-thiophen-2-yl-ethylamino)-6-chloro-quinoline-3-carboxylic acid]
